Experimental data published in ChEMBL document CHEMBL1201862, “PubChem BioAssay data set” (2004).
The source made the active and inactive calls. Unless noted, the rule behind the calls is not given here.

Key:
[1] = mammalian cell cytotoxicity, dose response, cytotoxicity control, plate reader, cherry-pick samples (AID 504397); format: functional, cell-based
[2] = molecular target: T1, Peroxisome proliferator-activated receptor gamma (Homo sapiens, UniProt P37231); experiment: PPARg ligand-binding domain binders, dose response, PPARg partial agonist project, biochemical, TR-FRET, LanthaScreen (AID 504446)
T1 sequence (P37231 whole entry): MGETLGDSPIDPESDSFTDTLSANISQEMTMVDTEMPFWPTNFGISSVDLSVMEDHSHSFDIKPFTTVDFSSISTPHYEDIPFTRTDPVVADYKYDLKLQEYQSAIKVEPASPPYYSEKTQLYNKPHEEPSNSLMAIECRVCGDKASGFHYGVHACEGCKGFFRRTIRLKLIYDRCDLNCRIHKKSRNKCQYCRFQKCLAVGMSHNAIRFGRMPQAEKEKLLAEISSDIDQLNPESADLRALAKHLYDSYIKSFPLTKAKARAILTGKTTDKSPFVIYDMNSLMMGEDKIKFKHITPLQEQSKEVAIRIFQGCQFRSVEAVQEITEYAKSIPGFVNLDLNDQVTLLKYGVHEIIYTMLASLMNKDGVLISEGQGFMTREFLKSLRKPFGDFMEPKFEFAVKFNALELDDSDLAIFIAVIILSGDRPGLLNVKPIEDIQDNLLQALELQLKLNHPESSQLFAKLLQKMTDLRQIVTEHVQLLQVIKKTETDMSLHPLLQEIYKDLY

[3] = molecular target: T1, Peroxisome proliferator-activated receptor gamma; experiment: PPARg partial agonists, dose response, cell-based, luminescence, assay provider (AID 504447); format: functional
[4] = NIH-3T3 fibroblast cytotoxicity, dose response, cytotoxicity control, cell-based, fluorescence, Alamar Blue, secondary assay (AID 2327); format: functional;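 also: NIH-3T3 mouse fibroblasts cultured with fluconazole at 8 µg/mL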
[5] = C. albicans growth with fluconazole, confirmation, fluorescence, retest (AID 2467); format: functional, cell-based
[6] = molecular target: T1, Peroxisome proliferator-activated receptor gamma; experiment: PPARg ligand-binding domain binders, dose response, PPARg partial agonist project, biochemical, fluorescence polarization, PolarScreen (AID 504453)
[7] = molecular target: T2, Serine/threonine-protein phosphatase (Candida dubliniensis (strain CD36 / CBS 7987 / NCPF 3949 / NRRLY-17841) (Yeast), UniProt B9W6M3); experiment: calcineurin pathway inhibitors in yeast reporter, dose response, S. cerevisiae, CDRE-lacZ, luminescence, secondary (AID 2388); format: functional, cell-based;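 also: yeast reporter cells carrying a calcineurin-responsive lacZ construct stimulated with calcium chloride; luminescent beta-galactosidase reporter signal in whole cells rather than isolated phosphatase activity; potency for inhibition where a drop in reporter signal means calcineurin blockade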
T2 sequence (B9W6M3 whole entry): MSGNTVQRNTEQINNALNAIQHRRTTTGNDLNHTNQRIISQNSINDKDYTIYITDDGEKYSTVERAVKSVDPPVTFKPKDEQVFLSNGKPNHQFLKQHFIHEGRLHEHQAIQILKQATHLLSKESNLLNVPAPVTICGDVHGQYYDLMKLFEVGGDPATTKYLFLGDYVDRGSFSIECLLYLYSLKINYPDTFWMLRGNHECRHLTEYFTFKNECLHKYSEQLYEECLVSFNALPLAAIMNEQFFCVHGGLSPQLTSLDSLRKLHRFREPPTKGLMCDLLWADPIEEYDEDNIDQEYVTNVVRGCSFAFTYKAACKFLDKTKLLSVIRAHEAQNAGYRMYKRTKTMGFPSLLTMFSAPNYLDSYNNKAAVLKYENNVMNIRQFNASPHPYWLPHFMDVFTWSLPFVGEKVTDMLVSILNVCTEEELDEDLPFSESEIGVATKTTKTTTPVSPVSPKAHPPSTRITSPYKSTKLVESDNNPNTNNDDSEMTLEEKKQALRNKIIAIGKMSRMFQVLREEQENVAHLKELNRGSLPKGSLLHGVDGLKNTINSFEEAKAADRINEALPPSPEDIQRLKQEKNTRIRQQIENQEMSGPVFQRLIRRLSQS

[8] = molecular target: ATP-dependent molecular chaperone HSP82 (Candida albicans (strain WO-1) (Yeast), UniProt C4YTQ8); experiment: loss of DOC-induced GRE-beta-galactosidase reporter signal, dose response, Hsp90 inhibitor project, S. cerevisiae, luminescence (AID 2400); format: functional, cell-based;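 also: beta-galactosidase luminescence from glucocorticoid response element reporter as proxy for Hsp90 function; inhibitor potency where signal loss means Hsp90 inhibition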
Sequence of ATP-dependent molecular chaperone HSP82 (C4YTQ8 whole entry): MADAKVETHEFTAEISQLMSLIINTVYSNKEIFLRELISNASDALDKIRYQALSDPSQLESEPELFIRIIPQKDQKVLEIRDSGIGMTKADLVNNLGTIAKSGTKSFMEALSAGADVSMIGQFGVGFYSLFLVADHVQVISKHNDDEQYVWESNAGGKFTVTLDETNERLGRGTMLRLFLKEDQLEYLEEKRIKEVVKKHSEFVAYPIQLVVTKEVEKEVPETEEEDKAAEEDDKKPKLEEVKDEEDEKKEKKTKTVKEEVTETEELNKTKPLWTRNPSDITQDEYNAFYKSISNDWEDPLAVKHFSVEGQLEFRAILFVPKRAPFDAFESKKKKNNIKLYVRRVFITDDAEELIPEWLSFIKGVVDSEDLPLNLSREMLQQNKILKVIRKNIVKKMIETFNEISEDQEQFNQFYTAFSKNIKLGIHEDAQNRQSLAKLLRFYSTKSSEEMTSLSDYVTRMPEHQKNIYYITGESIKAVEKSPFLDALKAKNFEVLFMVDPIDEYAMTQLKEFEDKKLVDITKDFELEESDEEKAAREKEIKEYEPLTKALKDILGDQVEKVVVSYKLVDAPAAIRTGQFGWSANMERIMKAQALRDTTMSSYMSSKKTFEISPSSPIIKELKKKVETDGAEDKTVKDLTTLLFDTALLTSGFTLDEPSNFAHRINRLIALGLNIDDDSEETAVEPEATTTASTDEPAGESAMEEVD

[9] = molecular target: Lysine-specific demethylase 4C (Homo sapiens, UniProt Q9H3R0); experiment: GASC-1 (JMJD2C) histone demethylase inhibitors, dose response, biochemical, DELFIA europium, cherry-picked samples (AID 488835); format: functional
Sequence of Lysine-specific demethylase 4C (Q9H3R0 whole entry): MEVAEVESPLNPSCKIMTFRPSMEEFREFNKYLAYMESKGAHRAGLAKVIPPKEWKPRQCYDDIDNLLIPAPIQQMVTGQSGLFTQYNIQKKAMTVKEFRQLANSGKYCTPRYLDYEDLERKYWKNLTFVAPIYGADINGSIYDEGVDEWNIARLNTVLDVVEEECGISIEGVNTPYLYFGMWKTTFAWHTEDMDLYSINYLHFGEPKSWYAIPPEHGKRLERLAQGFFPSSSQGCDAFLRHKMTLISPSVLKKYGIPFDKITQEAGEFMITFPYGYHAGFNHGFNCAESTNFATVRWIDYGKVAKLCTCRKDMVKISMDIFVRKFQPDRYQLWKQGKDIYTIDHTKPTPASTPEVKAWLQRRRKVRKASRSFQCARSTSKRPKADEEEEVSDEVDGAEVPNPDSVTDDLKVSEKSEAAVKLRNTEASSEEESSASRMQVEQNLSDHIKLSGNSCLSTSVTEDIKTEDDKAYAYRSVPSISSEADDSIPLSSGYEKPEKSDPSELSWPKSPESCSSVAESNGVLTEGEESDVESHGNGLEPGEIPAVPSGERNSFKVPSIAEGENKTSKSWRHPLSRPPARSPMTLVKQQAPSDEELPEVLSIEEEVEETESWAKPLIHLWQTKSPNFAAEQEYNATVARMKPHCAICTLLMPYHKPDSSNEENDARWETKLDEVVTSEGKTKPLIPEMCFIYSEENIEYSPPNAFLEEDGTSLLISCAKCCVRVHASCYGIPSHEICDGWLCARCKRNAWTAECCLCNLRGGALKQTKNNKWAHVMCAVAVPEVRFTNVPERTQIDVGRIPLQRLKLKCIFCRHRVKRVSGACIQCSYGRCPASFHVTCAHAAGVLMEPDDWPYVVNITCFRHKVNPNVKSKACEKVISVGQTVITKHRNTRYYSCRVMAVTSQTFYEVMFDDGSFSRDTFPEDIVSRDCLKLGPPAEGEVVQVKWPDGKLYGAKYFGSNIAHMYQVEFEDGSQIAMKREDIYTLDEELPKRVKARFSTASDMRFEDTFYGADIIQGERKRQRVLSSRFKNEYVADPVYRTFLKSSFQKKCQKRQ

Mu-type opioid receptor [10] = molecular target: T3, Mu-type opioid receptor (Homo sapiens, UniProt P35372); experiment: SAR Analysis of Antagonists of the MOR Receptor using an Image-Based Assay - Set 2. [Related pubchem assays (depositor defined):AID1777, AID1785, AID1786, AID1966, AID2133, AID2136, AID2284, AID2285, AID2420]; format: functional
T3 sequence (P35372 whole entry): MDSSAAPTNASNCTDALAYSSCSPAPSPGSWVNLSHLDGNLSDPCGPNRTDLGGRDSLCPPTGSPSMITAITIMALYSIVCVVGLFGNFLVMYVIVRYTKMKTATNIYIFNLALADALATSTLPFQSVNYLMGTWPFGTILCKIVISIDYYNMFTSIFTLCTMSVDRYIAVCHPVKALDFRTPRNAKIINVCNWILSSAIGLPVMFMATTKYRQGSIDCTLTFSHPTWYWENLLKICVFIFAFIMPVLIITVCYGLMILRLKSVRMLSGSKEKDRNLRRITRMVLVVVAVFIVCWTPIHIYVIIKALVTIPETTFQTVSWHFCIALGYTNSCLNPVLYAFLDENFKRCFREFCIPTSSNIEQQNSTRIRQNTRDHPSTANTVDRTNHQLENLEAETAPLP

[11] = molecular target: T4, Kappa-type opioid receptor (Homo sapiens, UniProt P41145); experiment: KOR antagonist analogs, beta-arrestin recruitment, SAR follow-up, cell-based, luminescence, set 2 (AID 2495); format: functional
T4 sequence (P41145 whole entry): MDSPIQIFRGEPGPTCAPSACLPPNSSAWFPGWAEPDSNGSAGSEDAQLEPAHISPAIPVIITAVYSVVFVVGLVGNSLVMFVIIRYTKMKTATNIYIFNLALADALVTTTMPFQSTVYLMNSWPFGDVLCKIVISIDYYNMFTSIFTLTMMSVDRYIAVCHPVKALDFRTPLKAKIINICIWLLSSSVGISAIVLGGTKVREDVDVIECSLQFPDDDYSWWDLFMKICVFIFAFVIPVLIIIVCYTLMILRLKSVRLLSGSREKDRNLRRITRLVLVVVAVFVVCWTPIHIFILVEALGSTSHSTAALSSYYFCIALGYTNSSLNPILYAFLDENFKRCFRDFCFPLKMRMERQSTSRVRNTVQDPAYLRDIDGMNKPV

[12] = molecular target: T4, Kappa-type opioid receptor; experiment: SAR analysis of Antagonists of the Kappa Opioid Receptor (KOR) using an Image-Based Assay - Set 2. [Related pubchem assays (depositor defined):AID1777, AID1785, AID1786, AID1966, AID2133, AID2136, AID2284, AID2285, AID2348]; format: functional
Mu-type opioid receptor [13] = molecular target: T3, Mu-type opioid receptor; experiment: SAR Analysis of Agonists of the MOR Receptor using an Image-Based Assay - Set 2. [Related pubchem assays (depositor defined):AID1777, AID1785, AID1786, AID1966, AID2133, AID2136, AID2284, AID2285, AID2352]; format: functional
[14] = molecular target: T4, Kappa-type opioid receptor; experiment: SAR analysis of Agonists of the Kappa Opioid Receptor (KOR) using an Image-Based Assay - Set 2. [Related pubchem assays (depositor defined):AID1777, AID1786, AID1966, AID2133, AID2136, AID2284, AID2285, AID2359]; format: functional
[15] = molecular target: T5, Delta-type opioid receptor (Homo sapiens, UniProt P41143); experiment: SAR Analysis of Agonists of the DOR Receptor using an Image-Based Assay - Set 2. [Related pubchem assays (depositor defined):AID1777, AID1785, AID1786, AID1966, AID2133, AID2136, AID2284, AID2285, AID2370]; format: functional
T5 sequence (P41143 whole entry): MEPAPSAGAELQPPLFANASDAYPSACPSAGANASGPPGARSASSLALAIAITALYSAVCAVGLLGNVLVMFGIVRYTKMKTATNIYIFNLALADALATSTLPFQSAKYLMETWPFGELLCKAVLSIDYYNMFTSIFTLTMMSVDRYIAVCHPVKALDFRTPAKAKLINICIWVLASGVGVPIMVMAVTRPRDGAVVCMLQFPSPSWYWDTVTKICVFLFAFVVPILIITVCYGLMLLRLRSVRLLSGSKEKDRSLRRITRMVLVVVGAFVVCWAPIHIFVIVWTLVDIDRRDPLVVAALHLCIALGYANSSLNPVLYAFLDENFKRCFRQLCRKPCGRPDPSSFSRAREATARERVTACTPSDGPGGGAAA

[16] = molecular target: T4, Kappa-type opioid receptor; experiment: SAR analysis of small molecule agonists of the kappa opioid receptor via a luminescent beta-arrestin assay - Set 2. [Related pubchem assays (depositor defined):AID1777, AID1785, AID1786, AID1966, AID2133, AID2136, AID2284, AID449737]; format: functional
[17] = molecular target: T5, Delta-type opioid receptor; experiment: SAR Analysis of Antagonists of the DOR Receptor using an Image-Based Assay - Set 2. [Related pubchem assays (depositor defined):AID1777, AID1785, AID1786, AID1966, AID2133, AID2136, AID2284, AID2285, AID2357]; format: functional
Cytochrome P450 2D6 = Cytochrome P450 2D6 (Homo sapiens, UniProt P10635);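 also: CYP2D6 member of a cytochrome P450 panel assay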
Sequence of Cytochrome P450 2D6 (P10635 whole entry): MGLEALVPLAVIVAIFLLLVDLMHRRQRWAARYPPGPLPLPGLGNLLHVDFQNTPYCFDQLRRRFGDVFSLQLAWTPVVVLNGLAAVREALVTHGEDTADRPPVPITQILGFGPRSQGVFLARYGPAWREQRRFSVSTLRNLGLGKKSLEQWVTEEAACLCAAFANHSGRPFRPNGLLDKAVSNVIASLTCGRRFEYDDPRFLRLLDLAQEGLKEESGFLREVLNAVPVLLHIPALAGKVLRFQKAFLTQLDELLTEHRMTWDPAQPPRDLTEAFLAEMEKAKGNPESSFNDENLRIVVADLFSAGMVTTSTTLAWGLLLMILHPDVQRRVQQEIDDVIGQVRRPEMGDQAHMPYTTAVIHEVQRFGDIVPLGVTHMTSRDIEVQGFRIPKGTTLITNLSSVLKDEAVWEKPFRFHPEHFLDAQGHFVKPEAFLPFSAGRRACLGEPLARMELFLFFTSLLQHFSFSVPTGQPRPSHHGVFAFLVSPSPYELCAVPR

[18] = molecular target: Alkaline phosphatase, tissue-nonspecific isozyme (Homo sapiens, UniProt P05186); experiment: inhibition of tissue-nonspecific alkaline phosphatase – biochemical, dose response (AID 488882); format: functional
Sequence of Alkaline phosphatase, tissue-nonspecific isozyme (P05186 whole entry): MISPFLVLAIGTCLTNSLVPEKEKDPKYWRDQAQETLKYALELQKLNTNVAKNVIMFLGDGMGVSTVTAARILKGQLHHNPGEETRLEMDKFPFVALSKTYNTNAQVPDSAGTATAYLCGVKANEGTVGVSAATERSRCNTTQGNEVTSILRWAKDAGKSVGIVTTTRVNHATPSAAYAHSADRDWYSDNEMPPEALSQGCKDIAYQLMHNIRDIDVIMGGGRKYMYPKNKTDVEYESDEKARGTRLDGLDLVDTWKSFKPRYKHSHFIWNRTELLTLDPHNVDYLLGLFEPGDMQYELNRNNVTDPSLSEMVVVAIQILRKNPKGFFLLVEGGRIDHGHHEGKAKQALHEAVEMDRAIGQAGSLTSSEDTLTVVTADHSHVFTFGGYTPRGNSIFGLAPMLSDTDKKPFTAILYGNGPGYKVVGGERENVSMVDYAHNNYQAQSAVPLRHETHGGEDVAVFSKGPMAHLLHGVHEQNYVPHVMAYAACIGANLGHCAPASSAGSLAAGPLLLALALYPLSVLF

Beta-galactosidase = Beta-galactosidase (Escherichia coli, UniProt Q8VNN2); experiment: PubChem AID 485352; format: functional
[19] = molecular target: Intestinal-type alkaline phosphatase (Mus musculus, UniProt P24822); experiment: PubChem AID 488874; format: functional
[20] = molecular target: T6, Intestinal-type alkaline phosphatase (Homo sapiens, UniProt P09923); experiment: Dose Response confirmation of uHTS hits from a small molecule inhibitors of human intestinal alkaline phosphatase via a luminescent assay. [Related pubchem assays (depositor defined):AID2544, AID2574]; format: functional
T6 sequence (P09923 whole entry): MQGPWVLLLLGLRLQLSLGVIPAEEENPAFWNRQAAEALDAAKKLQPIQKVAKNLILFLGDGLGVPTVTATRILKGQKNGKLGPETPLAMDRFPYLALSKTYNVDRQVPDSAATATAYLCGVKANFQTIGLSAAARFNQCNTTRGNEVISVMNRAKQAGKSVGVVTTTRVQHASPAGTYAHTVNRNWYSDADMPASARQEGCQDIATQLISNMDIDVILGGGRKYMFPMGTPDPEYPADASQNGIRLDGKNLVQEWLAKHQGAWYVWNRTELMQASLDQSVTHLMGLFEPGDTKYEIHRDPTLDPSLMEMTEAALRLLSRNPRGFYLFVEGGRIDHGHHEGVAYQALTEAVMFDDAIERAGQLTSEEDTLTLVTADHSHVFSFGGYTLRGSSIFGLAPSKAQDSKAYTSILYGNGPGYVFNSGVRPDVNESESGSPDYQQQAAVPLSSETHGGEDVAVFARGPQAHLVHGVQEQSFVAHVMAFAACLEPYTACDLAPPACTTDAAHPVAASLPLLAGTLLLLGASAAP

[21] = molecular target: T6, Intestinal-type alkaline phosphatase; experiment: human IAP inhibitors, dose response, biochemical, luminescent, uHTS hits, set 2 (AID 488793); format: functional
[22] = molecular target: UDP-galactopyranose mutase (Mycobacterium tuberculosis, UniProt P9WIQ1); experiment: Inhibitors of Mycobacterium tuberculosis UDP-galactopyranose mutase (UGM) enzyme Measured in Biochemical System Using Plate Reader - 2105-02_Inhibitor_Dose_CherryPick_Activity. [Related pubchem assays (depositor defined):AID504439]
Sequence of UDP-galactopyranose mutase (P9WIQ1 whole entry): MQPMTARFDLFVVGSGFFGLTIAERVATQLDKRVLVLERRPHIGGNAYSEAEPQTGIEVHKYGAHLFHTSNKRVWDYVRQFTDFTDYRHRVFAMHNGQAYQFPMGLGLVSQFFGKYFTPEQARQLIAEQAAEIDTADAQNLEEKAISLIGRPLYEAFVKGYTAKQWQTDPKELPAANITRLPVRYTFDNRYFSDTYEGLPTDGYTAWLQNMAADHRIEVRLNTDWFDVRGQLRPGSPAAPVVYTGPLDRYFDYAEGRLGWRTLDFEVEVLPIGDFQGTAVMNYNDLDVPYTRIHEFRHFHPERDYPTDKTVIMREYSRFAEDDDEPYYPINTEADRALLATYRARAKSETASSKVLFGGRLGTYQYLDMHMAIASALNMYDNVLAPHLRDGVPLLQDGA

[23] = molecular target: T7, Type-1 angiotensin II receptor (Homo sapiens, UniProt P30556); experiment: AT1 receptor antagonists, dose response, selectivity assay for APJ receptor antagonist project, cell-based, uHTS hits (AID 463214); format: functional;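 also: antagonist potency against angiotensin II stimulated AT1 response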
T7 sequence (P30556 whole entry): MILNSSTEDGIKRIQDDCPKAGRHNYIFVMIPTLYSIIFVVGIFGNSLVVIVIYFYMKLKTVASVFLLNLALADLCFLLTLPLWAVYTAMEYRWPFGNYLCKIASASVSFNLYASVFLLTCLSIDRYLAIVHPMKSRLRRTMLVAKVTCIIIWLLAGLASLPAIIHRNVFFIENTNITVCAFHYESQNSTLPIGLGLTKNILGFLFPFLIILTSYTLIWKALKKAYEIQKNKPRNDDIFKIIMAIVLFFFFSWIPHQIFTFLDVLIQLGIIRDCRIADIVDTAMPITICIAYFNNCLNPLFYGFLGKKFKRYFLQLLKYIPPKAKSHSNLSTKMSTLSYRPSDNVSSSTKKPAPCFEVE

[24] = molecular target: T8, Tyrosine-protein phosphatase non-receptor type 22 (Homo sapiens, UniProt Q9Y2R2); format: functional
T8 sequence (Q9Y2R2 whole entry): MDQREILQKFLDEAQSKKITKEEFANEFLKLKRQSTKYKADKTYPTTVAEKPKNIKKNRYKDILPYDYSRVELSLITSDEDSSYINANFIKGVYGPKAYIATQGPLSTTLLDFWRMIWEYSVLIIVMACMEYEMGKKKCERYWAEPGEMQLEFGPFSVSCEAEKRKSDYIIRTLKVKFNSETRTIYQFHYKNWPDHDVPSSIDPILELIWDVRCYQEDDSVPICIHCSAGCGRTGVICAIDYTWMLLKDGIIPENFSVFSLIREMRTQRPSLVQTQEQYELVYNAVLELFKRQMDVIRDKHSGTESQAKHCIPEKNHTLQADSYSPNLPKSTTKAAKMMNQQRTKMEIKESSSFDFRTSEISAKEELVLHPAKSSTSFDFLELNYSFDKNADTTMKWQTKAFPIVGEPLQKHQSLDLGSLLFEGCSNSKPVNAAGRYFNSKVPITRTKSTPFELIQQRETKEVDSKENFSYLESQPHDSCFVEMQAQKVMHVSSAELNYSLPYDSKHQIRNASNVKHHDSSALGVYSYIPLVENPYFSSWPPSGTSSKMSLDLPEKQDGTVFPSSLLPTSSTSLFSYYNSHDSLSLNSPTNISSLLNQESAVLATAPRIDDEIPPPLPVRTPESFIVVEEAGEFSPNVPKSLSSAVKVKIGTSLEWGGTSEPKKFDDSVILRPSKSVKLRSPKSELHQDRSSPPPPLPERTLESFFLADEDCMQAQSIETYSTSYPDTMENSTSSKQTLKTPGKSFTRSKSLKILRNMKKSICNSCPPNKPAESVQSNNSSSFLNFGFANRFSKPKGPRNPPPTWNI

[25] = molecular target: T8, Tyrosine-protein phosphatase non-receptor type 22; format: functional; remark: listed apart in the source
[26] = molecular target: T9, Tyrosine-protein phosphatase non-receptor type 7 (Homo sapiens, UniProt P35236); format: functional
T9 sequence (P35236 whole entry): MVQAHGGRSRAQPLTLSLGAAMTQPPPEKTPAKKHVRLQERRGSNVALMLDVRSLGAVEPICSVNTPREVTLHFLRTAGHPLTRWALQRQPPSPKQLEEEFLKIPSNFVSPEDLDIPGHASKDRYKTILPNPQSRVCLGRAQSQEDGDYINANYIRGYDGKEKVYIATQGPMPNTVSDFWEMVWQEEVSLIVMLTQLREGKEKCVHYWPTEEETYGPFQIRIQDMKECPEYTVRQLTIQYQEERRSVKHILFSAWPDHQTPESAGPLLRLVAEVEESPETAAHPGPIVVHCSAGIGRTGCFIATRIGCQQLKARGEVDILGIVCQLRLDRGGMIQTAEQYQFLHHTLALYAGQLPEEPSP

## COc1ccc(CCN(C)C(=O)c2ccc(S(=O)(=O)Nc3ccccc3C)cc2)cc1OC
[1]
  AC50: > 350 µM (inactive)

## Cc1ccc2nc(N3C(=O)C(O)=C(C(=O)c4ccco4)C3c3ccc(C)o3)sc2c1 (stereo not drawn)
[2]
  IC50: 14 µM (inactive)
[3]
  EC50: 26 µM (active)
[4]
  EC50: 67.5 µM (active)
[5]
  EC50: 0.071 µM (active)
[6]
  IC50: 30 µM (active)
[7]
  EC50: > 180 µM (inactive)
[8]
  EC50: 9.58 µM (active)

## CC(=O)Nc1ccc(CN2CCN(c3cccc(C(F)(F)F)c3)CC2)cc1
[9]
  AC50: 24.8 µM (active)

## Cc1ccc(S(=O)(=O)NCc2ccc(C(=O)NCCCN(Cc3ccccc3)C(C)C)cc2)cc1
Mu-type opioid receptor [10]
  IC50: > 32 µM (inactive)
[11]
  IC50: > 20 µM (inactive)
[12]
  IC50: > 32 µM (inactive)
Mu-type opioid receptor [13]
  EC50: > 32 µM (inactive)
[14]
  EC50: > 32 µM (inactive)
[15]
  EC50: > 32 µM (inactive)
[16]
  EC50: > 20 µM (inactive)
[17]
  IC50: > 32 µM (inactive)

## O=C(O)C1(C(=O)O)CCN(S(=O)(=O)c2ccccc2)CC1
Cytochrome P450 2D6
  AC50: inconclusive

## CN(C)c1ccc2nc3c(=O)[nH]c(=O)nc-3n(CC(O)C(O)C(O)CO)c2c1 (stereo not drawn)
[18]
  IC50: 33 µM (active)
Beta-galactosidase
  EC50: > 40 µM (inactive)
[19]
  IC50: 30.8 µM (active)
[20]
  IC50: 14.7 µM (inactive)
[21]
  IC50: 34 µM (active)
[22]
  AC50: > 500 µM (inactive)
[23]
  IC50: 29.1 µM (not active)

## COC(=O)C1=NN(C(=O)c2cccc(Cl)c2)C(O)(C(C)(C)C)C1 (stereo not drawn)
[24]
  IC50: > 79.4 µM (inactive)
[25]
  IC50: > 79.4 µM (inactive)
[26]
  IC50: > 79.4 µM (inactive)
